# Measured values taken from paper doi:10.1101/2025.06.18.657655, “Fibulin-4 is highly expressed in metastatic breast cancer and can serve as a target of peptide-based imaging probes and experimental therapeutics” (bioRxiv, 2025).
# Bridge positions count the residues as written; N and C are the ends. Square brackets hold non-standard residues; d marks the D form. Ends that are not written are not given here. * marks the point of attachment. Biotin = O=C1N[C@H]2[C@H](CS[C@H]2CCCCC(=O)*)N1
# T1: FBLN4 (Mus musculus, UniProt Q9WVJ9)
# T1 construct: proteins extracted from 4T1 cells were incubated with beads pre-loaded with BLMP6; endogenous in cells; host or cells: 4T1 mouse breast cancer cells
# T1 sequence (Q9WVJ9 28-443): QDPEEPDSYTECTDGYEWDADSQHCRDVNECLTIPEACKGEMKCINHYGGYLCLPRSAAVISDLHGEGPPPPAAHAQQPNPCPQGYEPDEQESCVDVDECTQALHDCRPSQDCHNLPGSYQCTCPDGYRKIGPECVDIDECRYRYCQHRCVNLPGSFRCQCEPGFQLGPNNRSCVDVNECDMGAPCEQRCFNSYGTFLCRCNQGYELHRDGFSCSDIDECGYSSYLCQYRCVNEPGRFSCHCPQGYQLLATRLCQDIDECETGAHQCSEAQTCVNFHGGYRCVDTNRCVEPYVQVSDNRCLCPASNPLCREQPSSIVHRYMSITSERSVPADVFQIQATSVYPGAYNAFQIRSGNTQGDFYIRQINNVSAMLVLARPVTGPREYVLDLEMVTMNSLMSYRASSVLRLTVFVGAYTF
# T2: Fibulin-4 protein (Abcam, 182808) (UniProt O95967 24-443)
# T2 chain: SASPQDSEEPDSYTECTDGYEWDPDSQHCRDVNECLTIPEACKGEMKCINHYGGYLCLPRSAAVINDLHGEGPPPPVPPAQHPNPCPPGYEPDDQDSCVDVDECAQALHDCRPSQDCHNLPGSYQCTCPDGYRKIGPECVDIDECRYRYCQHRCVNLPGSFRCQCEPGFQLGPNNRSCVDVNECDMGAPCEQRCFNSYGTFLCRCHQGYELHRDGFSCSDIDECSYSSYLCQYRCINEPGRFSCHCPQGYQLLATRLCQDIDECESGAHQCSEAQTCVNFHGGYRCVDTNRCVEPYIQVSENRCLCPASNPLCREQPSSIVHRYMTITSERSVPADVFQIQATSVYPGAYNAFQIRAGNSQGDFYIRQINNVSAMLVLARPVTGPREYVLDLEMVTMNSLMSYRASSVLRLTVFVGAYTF
# B1: MMAE-BLMP6 (peptide)
# peptide: [dC][dR][dA]G[dV]G[dR]G[dC]
# modifications: disulfide 1-9 (inferred); also: MMAE coupled via PAB-Cit-Val-PEG4 linker, site not given here
# Tests used:
# Stability in mouse serum = format: in vitro ADME; details: Figure S4B-C
# Description: To test MMAE-BLMP6 efficacy in vivo, we first analyzed its stability in mouse serum. […] We then used the experimental lung metastasis model of B16F10 cells injected intravenously to produce lung metastases.
# B16F10 lung metastases = experiment: B16F10 experimental lung metastasis model, treatment; format: in vivo, mouse; details: B16F10-luc iv
# Description: (§1) Animal studies were approved by the IACUC of UTHealth. Spontaneous cancer progression to metastases was modeled by injecting 2×10^4 4T1 cells into the mammary fat pad of 10-week-old female Balb/c mice (Jackson Laboratory) with a 31-gauge needle. Metastatic progression was monitored with bioluminescence imaging. For lung metastasis modeling, Balb/c mice were tail vein-injected with 2.5×10^5 4T1-luc WT or FBLN4-KO cells, C57BL/6 mice (Jackson) were tail vein-injected with 1×10^5 B16F10 cells, and athymic Nude-Foxn1nu (Envigo) mice were tail vein-injected with 1×10^5 MDA-MB-231-luc-GFP cells. For phage-peptide homing analysis, mice were injected into the tail vein with 5×10^10 transducing units (TU) of phage-BLMP6 ([6]). After 30 min of circulation, heart perfusion with 10 ml of PBS was performed and lung sections were processed. For PET imaging studies, mice were intravenously injected with 7.4 MBq (200 μCi, 5 nmol) of ^68Ga-labeled DOTA-BLMP6 and imaged 45–60 min later using Albira small-animal PET/CT scanner (Bruker After imaging, the mice were euthanized, the tissues of interest were harvested and probe homing was analyzed using a Cobra II automated gamma counter (Packard) and expressed as percentage of the injected dose per gram tissue (%ID/g tissue).
# To test MMAE-BLMP6 efficacy for cancer suppression, we first used the B16F10 experimental lung metastasis model. […]
# [1] = tested on: MDA-MB-231-luc-GFP lung metastases; experiment: MDA-MB-231 experimental lung metastasis model, treatment; format: in vivo, mouse
# Description: as §1
# To test MMAE-BLMP6 efficacy for cancer suppression, we first used the B16F10 experimental lung metastasis model. Three MMAE-BLMP6 (50 ug) or PBS subcutaneous injections were done over days 1–6 and four additional MMAE-BLMP6 (100 ug) or PBS subcutaneous injections on days 8–18 after iv injection of B16F10-luc cells (Figure 5A). […] While vehicle-treated mice began dying on day 15, with most animals perishing by day 21, MMAE-BLMP6-treated mice only started showing metastases on day 15 by IVIS and survived 2 to 3 days longer (Figure 5A). In the MDA-MB-231-luc-GFP experimental lung metastasis model, a similar trend was observed (Figure 5C).
# FBLN4 = biological target: T1, FBLN4; experiment: Affinity purification of FBLN4 from 4T1 cell extract on BLMP6-loaded beads; format: binding; details: biotinylated BLMP6 immobilized on streptavidin-coated beads; not isolated on control beads
# Description: To test if BLMP6 binds to FBLN4 in vitro, we used Octet to perform the biolayer interferometry assay. […] To confirm BLMP6 binding to FBLN4 expressed by cancer cells, proteins extracted from 4T1 cells were incubated with beads pre-loaded with BLMP6. […] To confirm BLMP6 binding to FBLN4 in a genetic model, we used CRISPR/Cas9 to make 4T1 FBLN4 knockout (KO) cells confirmed by RT-PCR (Figure 1E). FBLN4-KO and control 4T1-luc cells were grafted into mice, and once metastases were detected by bioluminescence, phage displaying BLMP6 ([6]) was injected. After 30 min of circulation, heart perfusion was performed, and lungs were recovered. Section histopathology confirmed metastasis formation in all lungs, indicating FBLN4 expression is not required for cancer cell colonization and growth at the secondary site.
# [2] = tested on: HEK293 cells ectopically expressing FBLN4; experiment: Fluorescent peptide binding to HEK293 cells; format: cell-based; details: Figure S2A
# [3] = tested on: invasive and metastatic cancer cells in tissue sections; experiment: Overlay assay on paraffin tissue sections
# Description: Octet binding assays were performed with an Octet RED96 system (ForteBio) as described ([13]). Briefly, the peptides were loaded onto streptavidin resin-coated biosensors (Sartorius Lab, 18–5019) at a concentration of 20 ug/ml in 1x kinetic buffer for 5 min. […] For all experiments, Ka (1/Ms) and Kd (1/s) were measured. FortéBio’s data analysis software was employed to fit the binding curve to a 1:1 binding model in order to extract association and dissociation rates. Overlay assay on tissues was performed by incubating AZDye555-BLMP6 (12.5 ug/ml) for 2 hr and washing with PBS before fixation with 4% paraformaldehyde.
# [4] = biological target: T2, Fibulin-4 protein (Abcam, 182808); experiment: BLI
# [5] = biological target: FBLN4 of mouse 4T1 cancer cells (mouse (endogenous in 4T1)) (UniProt Q9WVJ9)
molecule,measurement,setting,value
"MMAE-BLMP6: monomethyl auristatin E coupled to all-D BLMP6 via PEG4, valine-citrulline and PAB linker ([dC][dR][dA]G[dV]G[dR]G[dC]; disulfide 1-9 (inferred); also: MMAE coupled via PAB-Cit-Val-PEG4 linker, site not given here)",time after which a secondary degradation peak appeared in mouse serum,Stability in mouse serum,6 h
same,"stability in mouse serum, peaks observed",Stability in mouse serum; after 1 hr,single MMAE-BLMP6 peak was observed
same,"metastasis burden, bioluminescence analysis by IVIS","B16F10 lung metastases; sc 50 ug x3 over days 1-6 and 100 ug x4 on days 8-18, versus PBS, at day 5",metastasis suppression
same,survival longer than vehicle-treated mice,"B16F10 lung metastases; sc 50 ug x3 then 100 ug x4, vehicle mice began dying on day 15, most by day 21",2 to 3 days
same,"survival beyond controls, one treated mouse","[1]; MDA-MB-231-luc-GFP iv, one of the treated mice",9 days
same,"metastasis growth, bioluminescence imaging","[1]; MDA-MB-231-luc-GFP iv, sc treatment versus PBS, days 12 and 21",suppressed metastasis growth
same,"tolerability, clinical observation","[1]; athymic mice, 50 to 100 μg sc, at day 15, treatment interrupted 6 days, re-initiated at 15 μg daily",signs of sickness
"CRAGVGRGC (disulfide 1-9 (inferred)) [BLMP6, cyclic peptide … that homes to disseminating tumor cells]","FBLN4 isolated from 4T1 cell proteins on peptide-loaded beads, immunoblotting with anti-FBLN4 antibodies",FBLN4,the predicted 49 kDa band was observed
AZDye555-BLMP6 (AZDye555-CRAGVGRGC; bridge 1-9 (inferred)),binding to HEK293 cells ectopically expressing FBLN4,[2],confirmed to bind
same,binding to non-transfected control HEK293 cells,[2],not to non-transfected control cells
same,binding to lung sections from mice grafted with 4T1 cells,"[3]; 12.5 ug/ml overlay, 2 hr, paraffin sections",selectively bound to metastatic lesions but not to normal lung
same,binding to lung sections from mice with MDA-MB-231 experimental lung metastases,"[3]; 12.5 ug/ml overlay, paraffin sections, N-cadherin IF",binds to a subpopulation of tumor cells expressing N-cadherin
same,binding across human breast cancer tissue array cores,"[3]; human FFPE tissue arrays: 50 primary, 40 metastatic, 10 adjacent control biopsies",largely concordant with N-cadherin expression
"Biotin-CRAGVGRGC (disulfide 1-9 (inferred)) [biotinylated BLMP6, cyclic peptide CRAGVGRGC]",koff,[4],3.18e-07 s⁻¹
B1,"IC50 of cell viability (CellTiter-Blue), 4T1 cells, 24 h after adding MMAE-BLMP6",[5],500 nM
